≈ marks a conversion by molar mass, not a printed value.
Experiments:
[1] = target: T1, cAMP and cAMP-inhibited cGMP 3',5'-cyclic phosphodiesterase 10A (Homo sapiens, UniProt Q9Y233); assay: Inhibition of human recombinant PDE10A using cAMP as substrate preincubated for 20 mins followed by substrate addition measured after 2 hrs by FRET assay
[2] = Equilibrium solubility of the compound in phosphate buffer at pH 7.4; format: physicochemical
[3] = target: cGMP-dependent 3',5'-cyclic phosphodiesterase (Homo sapiens, UniProt O00408); assay: Inhibition of human recombinant PDE2A using cAMP as substrate preincubated for 20 mins followed by substrate addition measured after 2 hrs by FRET assay
[4] = target: T1, cAMP and cAMP-inhibited cGMP 3',5'-cyclic phosphodiesterase 10A; assay: Binding affinity to human recombinant PDE10A after 15 mins by surface plasmon resonance assay
[5] = target: T1, cAMP and cAMP-inhibited cGMP 3',5'-cyclic phosphodiesterase 10A; assay: Inhibition of human recombinant PDE10A using cAMP as substrate at 30 uM preincubated for 20 mins followed by substrate addition measured after 2 hrs by FRET assay

cGMP-dependent 3',5'-cyclic phosphodiesterase, sequence (O00408 whole entry): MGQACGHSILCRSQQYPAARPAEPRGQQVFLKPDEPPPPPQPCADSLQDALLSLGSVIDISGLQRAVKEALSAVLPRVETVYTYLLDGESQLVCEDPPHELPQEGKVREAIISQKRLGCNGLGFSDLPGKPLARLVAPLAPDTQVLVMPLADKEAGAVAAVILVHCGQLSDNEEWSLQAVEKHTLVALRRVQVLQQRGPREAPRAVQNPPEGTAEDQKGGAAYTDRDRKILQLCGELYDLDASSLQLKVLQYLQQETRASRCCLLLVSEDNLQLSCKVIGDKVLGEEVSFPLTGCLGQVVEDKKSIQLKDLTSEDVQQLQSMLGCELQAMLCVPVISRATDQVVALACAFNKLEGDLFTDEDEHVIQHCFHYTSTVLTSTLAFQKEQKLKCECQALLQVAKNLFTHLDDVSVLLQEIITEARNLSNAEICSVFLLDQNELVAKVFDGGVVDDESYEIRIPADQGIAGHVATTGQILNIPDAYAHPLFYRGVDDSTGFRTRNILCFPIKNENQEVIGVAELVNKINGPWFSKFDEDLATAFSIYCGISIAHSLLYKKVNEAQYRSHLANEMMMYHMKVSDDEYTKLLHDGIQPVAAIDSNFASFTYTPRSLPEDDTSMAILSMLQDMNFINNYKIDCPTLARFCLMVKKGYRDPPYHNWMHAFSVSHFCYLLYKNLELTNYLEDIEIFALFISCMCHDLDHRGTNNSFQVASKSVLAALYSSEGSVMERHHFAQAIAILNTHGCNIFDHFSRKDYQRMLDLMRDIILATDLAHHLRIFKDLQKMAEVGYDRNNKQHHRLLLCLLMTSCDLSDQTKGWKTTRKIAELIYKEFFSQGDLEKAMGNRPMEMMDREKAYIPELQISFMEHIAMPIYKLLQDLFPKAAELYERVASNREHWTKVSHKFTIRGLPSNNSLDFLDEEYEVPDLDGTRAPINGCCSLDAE
T1 sequence (Q9Y233 whole entry): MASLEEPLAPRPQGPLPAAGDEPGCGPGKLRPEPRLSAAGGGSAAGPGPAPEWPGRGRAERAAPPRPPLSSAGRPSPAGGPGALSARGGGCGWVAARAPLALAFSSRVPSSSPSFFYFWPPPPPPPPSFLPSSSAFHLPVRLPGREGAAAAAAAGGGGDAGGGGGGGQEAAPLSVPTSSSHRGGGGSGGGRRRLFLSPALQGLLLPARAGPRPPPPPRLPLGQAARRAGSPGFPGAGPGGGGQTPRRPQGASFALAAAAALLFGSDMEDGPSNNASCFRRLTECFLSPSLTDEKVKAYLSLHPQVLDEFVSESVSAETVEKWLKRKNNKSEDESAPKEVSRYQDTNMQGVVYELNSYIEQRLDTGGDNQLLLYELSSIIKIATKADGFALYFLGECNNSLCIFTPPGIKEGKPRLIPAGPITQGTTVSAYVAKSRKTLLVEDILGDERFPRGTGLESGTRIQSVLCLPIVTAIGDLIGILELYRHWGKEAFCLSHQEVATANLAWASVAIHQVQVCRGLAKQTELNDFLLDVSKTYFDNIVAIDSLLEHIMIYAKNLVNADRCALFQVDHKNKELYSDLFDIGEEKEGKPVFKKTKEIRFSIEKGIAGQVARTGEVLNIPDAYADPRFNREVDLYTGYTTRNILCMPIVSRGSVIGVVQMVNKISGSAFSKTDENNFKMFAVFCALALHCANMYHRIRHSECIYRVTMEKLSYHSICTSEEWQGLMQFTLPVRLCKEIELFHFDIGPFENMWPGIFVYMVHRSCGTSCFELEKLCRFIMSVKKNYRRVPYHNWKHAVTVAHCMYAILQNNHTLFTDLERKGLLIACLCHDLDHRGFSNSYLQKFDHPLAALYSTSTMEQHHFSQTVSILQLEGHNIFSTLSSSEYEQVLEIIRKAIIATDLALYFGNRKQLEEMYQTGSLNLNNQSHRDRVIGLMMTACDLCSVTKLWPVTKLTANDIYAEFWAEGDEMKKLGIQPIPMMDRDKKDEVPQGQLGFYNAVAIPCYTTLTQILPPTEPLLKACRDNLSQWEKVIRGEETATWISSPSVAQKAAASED

Row | SMILES | IC50 [1] | solubility thermodynamic [2] | IC50 [3] | IC50 [4] | inhibition [5]
1 | Cc1nocc1C(=O)Nc1cc(-c2nc3ccccc3[nH]2)[nH]n1 | 3800 nM | 2 µM (≈ 0.617 µg/mL) |  |  | 
2 | Cc1c(Cl)cccc1C(=O)Nc1ncc(-c2nc3ccccc3n2C)s1 | 16 nM | < 1 µM | > 100000 nM |  | 
3 | N#Cc1cccc(C(=O)Nc2ncc(-c3nc4ccccc4[nH]3)s2)c1 | 110 nM | 1 µM (≈ 0.345 µg/mL) | > 100000 nM |  | 
4 | N#Cc1cccc(C(=O)Nc2ncc(-c3nc4ccccc4n3CCN)s2)c1 | 490 nM | 13 µM (≈ 5.05 µg/mL) |  |  | 
5 | Cc1cc(-c2ccco2)[nH]n1 |  |  |  | 851000 nM | 
6 | Cc1c(Cl)cccc1C(=O)Nc1cc(-c2nc3ccccc3[nH]2)[nH]n1 | 100 nM | < 1 µM | > 100000 nM |  | 
7 | Cc1cccc(C(=O)Nc2cc(-c3nc4ccccc4[nH]3)[nH]n2)c1Cl | 280 nM | < 1 µM |  |  | 
8 | Cc1csc(-c2ccccn2)n1 |  |  |  | 324000 nM | 
9 | Cn1c(-c2cnc(NC(=O)c3cccc(C#N)c3)s2)nc2ccccc21 | 120 nM | < 1 µM |  |  | 
10 | CS(=O)(=O)c1cccc(C(=O)Nc2cc(-c3nc4ccccc4[nH]3)[nH]n2)c1 | > 30000 nM |  |  |  | 23%

Reference: ChEMBL document CHEMBL3745613, “Fragment-assisted hit investigation involving integrated HTS and fragment screening: Application to the identification of phosphodiesterase 10A (PDE10A) inhibitors” (Bioorg Med Chem Lett, 2016)
